Laboratory results taken from PMC12587161, “Chidamide (a Histone Deacetylase Inhibitor) Plus Abiraterone in Metastatic Castration‐Resistant Prostate Cancer (mCRPC): A Phase Ib Trial” (MedComm, 2025).
“Also recorded” adds a separate entry of the source. Read-outs that look alike come from different tables or passages of the source.

Key:
patients with mCRPC = type: in vivo
Experimental: Chidamide was tested in three dose groups (20 mg, 25 mg, 30 mg). The starting dose was 20 mg per dose, administered twice a week, with a treatment cycle lasting 4 weeks. Dosing occurred on fixed days of each week, with two doses administered on the same day each week for the duration of the 4‐week cycle. Three participants are enrolled in each dosage group. If no DLT occurred during the first treatment cycle, the dose was escalated and three patients were enrolled at the next dose level. However, if one DLT was observed, three additional patients were added at the same dose level for further assessment. If no new DLTs occur, the study continues to the next dose level. If two or more of the six patients at a given dose level developed a DLT, further dose escalation was halted, and the prior dose level was determined to be the MTD. Abiraterone was combined with the second administration of chidamide on Day 4 of the first cycle. The observation for DLT was in the period of first cycle of treatment. […]

[1] = system: AR downstream genes (PSA, TMPRSS2, SLC45A3) in C4-2 cells; assay: RT-PCR of AR downstream genes; type: cell-based; settings: chidamide 0.5 µM
Experimental: (§1) FIGURE 5 Chidamide inhibited AR pathway and CRPC progression and in vitro. (A) Effect of chidamide and enzalutamide on cell viability. C4‐2 cells were treated with DHT (10 nM), chidamide (0.5 µM), and/or enzalutamide (20 µM) for 96 h. Cell viability was measured by CCK‐8. […] DHT (10 nM) served as control.
Total cellular RNA was isolated using EZ‐press RNA Purification Kit (EZBioscience, USA) according to the manufacturer's protocol. For first‐strand cDNA synthesis, 5 µg of total RNA was reverse‐transcribed using the PrimeScript RT Master Mix (Perfect Real Time, TaKaRa Bio, Kusatsu, Japan) followed by quantitative PCR (qPCR) with 2 × Taq Master Mix (Vazyme Biotech Co., Ltd, China) according to the manufacturer's instructions. Real‐time PCR analyses were conducted using the Biorad CFX96 system and the appropriate primers to estimate the mRNA expression. The primer sequences were as follows: for PSA, forward 5′‐[…]‐3′ and reverse 5′‐[…]‐3′; for TMPRSS2, forward 5′‐[…]‐3′ and reverse 5′‐[…]‐3′; for SLC45A3, forward 5′‐[…]‐3′ and reverse 5′‐[…]‐3′; for GAPDH, forward 5′‐[…]‐3′ and reverse 5′‐[…]‐3′.

[2] = Chidamide pharmacokinetics in patients (compartmental modeling, Phoenix Winnonlin 7.0); type: in vivo; settings: male, human, plasma, mCRPC patients, after first administration; for AUC(0-t): read-out: AUC0–24 h, Mean; for clearance: read-out: CL, Mean (converted); for Vd: read-out: Vss, Mean; for half-life: read-out: t 1/2, Mean (converted)
Experimental: From patients administered with different doses of chidamide, blood samples were collected in a sodium heparin tube at the time points of 2, 4, 8, 12, and 24 h after the completion of the first administration of chidamide (Day 1) in treatment cycle 1 and cycle 2. PK parameters were estimated from chidamide concentrations measured using […] samples taken at specified time points postdosing, and were analyzed by Phoenix Winnonlin 7.0.

C4-2 cells = assay: Cell viability by CCK-8; type: cell-based; settings: DHT 10 nM, chidamide 0.5 µM and/or enzalutamide 20 µM, 96 h
Experimental: as §1
C4‐2 cell line was provided by Prof. Yonghong Li (Sun Yat‐sen University Cancer Center) and validated by short tandem repeat (STR). C4‐2 cells were grown in RPMI 1640 containing 10% FBS.

[3] = system: chemotherapy-naïve mCRPC patients; design: method as in PMID 19608618; settings: cited from earlier work

Structure (SMILES): Nc1cc(F)ccc1NC(=O)c1ccc(CNC(=O)/C=C/c2cccnc2)cc1 [chidamide, Chidamide]
- Chidamide-related SAEs (patients with mCRPC; all 18 patients): No chidamide‐related SAEs were observed
- Dose-limited toxicity (DLT) (patients with mCRPC; dose escalation 20, 25, 30 mg chidamide, first cycle): none of the patients experienced a DLT
- Relative mRNA expression of PSA [1]: significantly downregulated; also recorded: decreased
- Relative mRNA expression of SLC45A3 [1]: significantly downregulated; also recorded: decreased
- Relative mRNA expression of TMPRSS2 [1]: significantly downregulated; also recorded: decreased
- Cmax ([2]; 20 mg (N = 4)): 79.2 ng/mL
- AUC(0-t) ([2]; 20 mg (N = 4)): 1330 ng·h/mL
- clearance ([2]; 20 mg (N = 4)): 170 mL/min
- Vd ([2]; 20 mg (N = 4)): 207 L
- half-life ([2]; 20 mg (N = 4)): 13.9 h
- Cmax ([2]; 25 mg (N = 11)): 91.2 ng/mL
- AUC(0-t) ([2]; 25 mg (N = 11)): 1160 ng·h/mL
- clearance ([2]; 25 mg (N = 11)): 260 mL/min
- Vd ([2]; 25 mg (N = 11)): 326 L
- half-life ([2]; 25 mg (N = 11)): 13.6 h
- Cmax ([2]; 30 mg (N = 3)): 296 ng/mL
- AUC(0-t) ([2]; 30 mg (N = 3)): 2860 ng·h/mL
- clearance ([2]; 30 mg (N = 3)): 188 mL/min
- Vd ([2]; 30 mg (N = 3)): 132 L
- half-life ([2]; 30 mg (N = 3)): 8.06 h
- Cell viability (C4-2 cells): effectively inhibits the cell viability

Structure (SMILES): C/C=C1\NC(=O)[C@H]2CSSCC/C=C/[C@H](CC(=O)N[C@H](C(C)C)C(=O)N2)OC(=O)[C@H](C(C)C)NC1=O [romidepsin]
- Time to progression (TTP) [3]: 1.8 months
